Tests used:
Assay in all cases: relative viability (nuclei count vs DMSO), 5 days (fraction); higher = more cells survive
[1] = system: A-427
Outline: (§1)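 Cells from lung cancer lines were seeded into 1536-well plates and, one day later, dosed by pin tool. Treatments were either a single drug or a fixed dose of an anchor drug with five library-drug doses (not always all listed) in √10 steps. After 5 days, nuclei were stained in a one-step fixation (final 0.05% Triton X-100, 1% formaldehyde, 1 ug/ml Hoechst) and counted on 4× images, and relative viability is the treated-to-vehicle nuclei ratio, as the median of duplicate plates.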

[2] = system: COR-L23
Outline: as §1

[3] = system: ChaGo-K-1
Outline: as §1

[4] = system: EKVX
Outline: as §1

[5] = system: EPLC-272H
Outline: as §1

[6] = system: HCC-366
Outline: as §1

[7] = system: HCC-44
Outline: as §1

[8] = system: HCC-78
Outline: as §1

[9] = system: HOP-62
Outline: as §1

[10] = system: LOU-NH91
Outline: as §1

[11] = system: NCI-H1395
Outline: as §1

[12] = system: NCI-H1650
Outline: as §1

O=C(O)CCCCC(CCSCc1ccccc1)SCc1ccccc1 (stereo unspecified) [CPI-613] + O=C(c1cc(Cc2n[nH]c(=O)c3ccccc23)ccc1F)N1CCN(C(=O)C2CC2)CC1 [Olaparib] (partner 8 µM)
relative viability ([1]; first compound 5 µM): 0.775 | relative viability ([1]; first compound 15.81 µM): 0.7 | relative viability ([1]; first compound 50 µM): 0.711 | relative viability ([1]; first compound 158.11 µM): 0.229 | relative viability ([1]; first compound 500 µM): 0.177 | relative viability ([2]; first compound 5 µM): 0.369 | relative viability ([2]; first compound 15.81 µM): 0.299 | relative viability ([2]; first compound 50 µM): 0.389 | relative viability ([2]; first compound 158.11 µM): 0.175 | relative viability ([2]; first compound 500 µM): 0.0294 | relative viability ([3]; first compound 5 µM): 0.4 | relative viability ([3]; first compound 15.81 µM): 0.411 | relative viability ([3]; first compound 50 µM): 0.412 | relative viability ([3]; first compound 158.11 µM): 0.319 | relative viability ([3]; first compound 500 µM): 0.251 | relative viability ([4]; first compound 5 µM): 0.756 | relative viability ([4]; first compound 15.81 µM): 0.862 | relative viability ([4]; first compound 50 µM): 0.856 | relative viability ([4]; first compound 500 µM): 0.802 | relative viability ([5]; first compound 5 µM): 0.812 | relative viability ([5]; first compound 15.81 µM): 0.683 | relative viability ([5]; first compound 50 µM): 0.653 | relative viability ([5]; first compound 158.11 µM): 0.198 | relative viability ([5]; first compound 500 µM): 0.083 | relative viability ([6]; first compound 5 µM): 0.392 | relative viability ([6]; first compound 15.81 µM): 0.37 | relative viability ([6]; first compound 50 µM): 0.41 | relative viability ([6]; first compound 158.11 µM): 0.0554 | relative viability ([6]; first compound 500 µM): 0.0079 | relative viability ([7]; first compound 5 µM): 0.97 | relative viability ([7]; first compound 15.81 µM): 0.95 | relative viability ([7]; first compound 50 µM): 0.925 | relative viability ([7]; first compound 158.11 µM): 0.629 | relative viability ([7]; first compound 500 µM): 0.469 | relative viability ([8]; first compound 15.81 µM): 0.792 | relative viability ([8]; first compound 50 µM): 0.857 | relative viability ([8]; first compound 158.11 µM): 0.842 | relative viability ([8]; first compound 500 µM): 0.711 | relative viability ([9]; first compound 5 µM): 0.298 | relative viability ([9]; first compound 15.81 µM): 0.471 | relative viability ([9]; first compound 50 µM): 0.368 | relative viability ([9]; first compound 158.11 µM): 0.459 | relative viability ([9]; first compound 500 µM): 0.459 | relative viability ([10]; first compound 5 µM): 0.883 | relative viability ([10]; first compound 15.81 µM): 0.86 | relative viability ([10]; first compound 50 µM): 0.867 | relative viability ([10]; first compound 158.11 µM): 0.442 | relative viability ([10]; first compound 500 µM): 0.533 | relative viability ([11]; first compound 5 µM): 0.473 | relative viability ([11]; first compound 15.81 µM): 0.479 | relative viability ([11]; first compound 50 µM): 0.469 | relative viability ([11]; first compound 158.11 µM): 0.436 | relative viability ([11]; first compound 500 µM): 0.266 | relative viability ([12]; first compound 5 µM): 0.728 | relative viability ([12]; first compound 15.81 µM): 0.791 | relative viability ([12]; first compound 50 µM): 0.749
